Each structure is given as a SMILES string. pEC50, pIC50: −log10 of the molar value. “And” between values parts separate entries of the source, which are not always exact repeats. Identical values can stand only once. “Also recorded” adds a separate entry of the source. Like-named read-outs stand apart in the source and are kept apart here. Marks after values point to notes of the source that are not given here.

The pIC50 is the IC50 on a negative log10 scale, so that one unit is a factor of ten. Usually pEC50 stands for the negative decadic logarithm of the EC50, by convention in mol/L.

One series addresses T1, 5-HT1A receptor (Homo sapiens, UniProt P08908).
T1 construct: host or cells: CHO-K1 (co-expressing Ga15)
T1 sequence (P08908 1-422): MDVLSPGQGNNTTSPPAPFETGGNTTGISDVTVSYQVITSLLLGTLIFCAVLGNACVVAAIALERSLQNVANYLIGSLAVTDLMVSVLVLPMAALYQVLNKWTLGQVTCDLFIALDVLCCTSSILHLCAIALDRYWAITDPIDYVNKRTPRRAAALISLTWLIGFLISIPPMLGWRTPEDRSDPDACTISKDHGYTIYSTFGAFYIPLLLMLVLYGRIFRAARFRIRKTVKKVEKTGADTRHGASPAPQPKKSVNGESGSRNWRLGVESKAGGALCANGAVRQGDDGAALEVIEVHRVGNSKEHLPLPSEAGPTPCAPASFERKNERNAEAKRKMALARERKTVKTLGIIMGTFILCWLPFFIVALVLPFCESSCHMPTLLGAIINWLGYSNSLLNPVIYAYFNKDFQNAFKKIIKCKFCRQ
Put plainly: cAMP-Glo assay of 5-HT1A receptor modulation, +5-HT1A (CHO-K1/5-HT1A/Ga15) vs -5-HT1A (CHO-K1/Ga15) cells. The arrangement: dose or concentration left out as unconfirmed. The format is cell-based. The note with it: +5-HT1A vs -5-HT1A cell cultures stimulated with forskolin, increasing ligand concentrations.

Series [1] has as its target T2, neuronal 5-HT2A receptor (5-HT2AR) (Mus musculus, UniProt P35363).
T2 construct: HTR was measured in mice treated with a control and test compounds; tissue Charles River; host or cells: live C57BL/6-Elite mice (neuronal receptor)
Put plainly: Drug-induced Head Twitch Response (HTR) in mice. The format is in vivo, C57BL/6-Elite mice. Particulars: 1 mg/kg i.p., 15-to-30-minute window post-drug, relative to vehicle-treated control mice.

A short description of series [2]: LC-MS measurement of dosing solution concentrations (nominal vs measured). The class given is physicochemical. How it is done:
(§1) Briefly, the procedure was as follows. […] 19, 2022.
Pharmacokinetic (PK) evaluations were performed in the same manner as described in Example 1, except compound C(IV) was used in place of compound C(V). […] Thus, only psilocin PK analysis was performed. […] Table 46 summarizes these “measured” concentrations along with corresponding “nominal” concentrations for each dosing solution. Results for psilocin PK following C(IV) administration are found in Tables 47A-47B (0.293 mg/kg IV dose), Tables 48A-48B (0.275 mg/kg oral dose), Tables 49A-49B (0.789 mg/kg oral dose), Tables 50A-50B (2.52 mg/kg oral dose), Table 51 (comparative summary for IV data), Table 52 (comparative summary for oral data), Table 53A (psilocin exposure) and FIGS. 10H (i) and 10H (ii).

For the next series, the target named is GABAA (Homo sapiens, UniProt P14867+P18507+P47870). The class given is cell-based. The note with it: ion channel.
Sequence of GABAA (P14867 28-456): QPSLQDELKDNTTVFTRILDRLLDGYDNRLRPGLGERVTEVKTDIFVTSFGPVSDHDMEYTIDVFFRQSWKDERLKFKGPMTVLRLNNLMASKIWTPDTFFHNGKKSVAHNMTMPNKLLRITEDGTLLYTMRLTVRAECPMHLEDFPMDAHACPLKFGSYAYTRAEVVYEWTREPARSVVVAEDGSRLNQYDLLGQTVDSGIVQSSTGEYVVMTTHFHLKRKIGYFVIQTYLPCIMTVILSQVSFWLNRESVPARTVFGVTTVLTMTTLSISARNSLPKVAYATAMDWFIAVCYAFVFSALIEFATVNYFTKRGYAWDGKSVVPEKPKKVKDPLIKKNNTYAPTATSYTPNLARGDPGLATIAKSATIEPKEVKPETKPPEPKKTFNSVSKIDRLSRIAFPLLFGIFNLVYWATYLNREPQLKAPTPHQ
Sequence of GABAA (P47870 26-512): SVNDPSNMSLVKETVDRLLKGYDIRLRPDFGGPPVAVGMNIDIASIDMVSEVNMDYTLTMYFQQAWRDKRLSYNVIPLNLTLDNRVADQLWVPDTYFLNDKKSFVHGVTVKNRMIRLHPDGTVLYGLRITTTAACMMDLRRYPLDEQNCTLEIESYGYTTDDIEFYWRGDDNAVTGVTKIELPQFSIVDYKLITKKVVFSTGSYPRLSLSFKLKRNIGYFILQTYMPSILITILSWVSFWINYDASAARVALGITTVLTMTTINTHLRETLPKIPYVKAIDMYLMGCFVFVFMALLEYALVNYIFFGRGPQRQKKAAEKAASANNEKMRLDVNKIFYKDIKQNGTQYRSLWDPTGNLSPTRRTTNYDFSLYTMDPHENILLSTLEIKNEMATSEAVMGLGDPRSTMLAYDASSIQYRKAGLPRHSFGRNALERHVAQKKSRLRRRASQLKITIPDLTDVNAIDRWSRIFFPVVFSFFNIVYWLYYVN
Sequence of GABAA (P18507 40-475): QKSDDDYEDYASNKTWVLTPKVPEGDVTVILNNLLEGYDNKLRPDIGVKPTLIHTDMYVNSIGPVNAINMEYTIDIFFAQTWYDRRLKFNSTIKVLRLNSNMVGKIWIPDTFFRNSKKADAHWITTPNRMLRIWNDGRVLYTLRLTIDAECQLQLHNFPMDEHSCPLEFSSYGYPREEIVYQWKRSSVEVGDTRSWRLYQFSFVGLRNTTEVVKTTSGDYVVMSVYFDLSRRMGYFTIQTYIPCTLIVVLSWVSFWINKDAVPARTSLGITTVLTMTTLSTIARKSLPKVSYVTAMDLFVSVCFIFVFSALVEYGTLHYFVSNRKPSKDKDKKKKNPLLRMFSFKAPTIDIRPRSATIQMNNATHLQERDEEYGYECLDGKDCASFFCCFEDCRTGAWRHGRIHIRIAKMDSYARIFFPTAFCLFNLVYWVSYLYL
Series [3] is described as follows: Mouse pharmacokinetic (PK) study, parent compound and psilocin metabolite in plasma. Particulars: for Detectability of administered compound in plasma, any animals at any dose: i.v. and oral doses. The class given is in vivo, C57Bl/6 mice.
Source text: as §1

A further series deals with 5-HT2A receptor (Homo sapiens, UniProt P28223). Put plainly: [3H]ketanserin competition binding assay (SPA) at 5-HT2A. Particulars: 1 nM [3H]ketanserin, FIGS. 3E, 3F.
Sequence of 5-HT2A receptor (P28223 whole entry): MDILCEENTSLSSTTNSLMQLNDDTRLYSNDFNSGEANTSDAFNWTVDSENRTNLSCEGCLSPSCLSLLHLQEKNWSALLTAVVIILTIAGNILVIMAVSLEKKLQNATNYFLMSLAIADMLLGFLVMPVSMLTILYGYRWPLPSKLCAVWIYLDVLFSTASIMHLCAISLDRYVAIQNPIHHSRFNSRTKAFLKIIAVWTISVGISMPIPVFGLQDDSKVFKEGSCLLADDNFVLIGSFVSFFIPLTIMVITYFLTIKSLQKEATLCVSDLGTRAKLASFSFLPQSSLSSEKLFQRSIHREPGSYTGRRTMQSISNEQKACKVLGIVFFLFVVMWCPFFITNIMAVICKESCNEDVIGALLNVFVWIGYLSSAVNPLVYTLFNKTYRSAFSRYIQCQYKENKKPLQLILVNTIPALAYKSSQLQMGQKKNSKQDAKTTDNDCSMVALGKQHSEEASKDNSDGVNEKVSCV
Where [4] appears, read: mouse, prodrug 1 mg/kg i.v., 8 h, individual animals.
Where [5] appears, read: mouse, prodrug 1 mg/kg oral, 8 h, individual animals.
Setting [6] is: mouse, prodrug 1 mg/kg oral, 24 h, individual animals.
The mark [7] stands for this setting: mouse, prodrug 3 mg/kg oral, 24 h, individual animals.
The mark [8] stands for this setting: mouse, prodrug 10 mg/kg oral, 24 h, individual animals.

T2 sequence (P35363 whole entry): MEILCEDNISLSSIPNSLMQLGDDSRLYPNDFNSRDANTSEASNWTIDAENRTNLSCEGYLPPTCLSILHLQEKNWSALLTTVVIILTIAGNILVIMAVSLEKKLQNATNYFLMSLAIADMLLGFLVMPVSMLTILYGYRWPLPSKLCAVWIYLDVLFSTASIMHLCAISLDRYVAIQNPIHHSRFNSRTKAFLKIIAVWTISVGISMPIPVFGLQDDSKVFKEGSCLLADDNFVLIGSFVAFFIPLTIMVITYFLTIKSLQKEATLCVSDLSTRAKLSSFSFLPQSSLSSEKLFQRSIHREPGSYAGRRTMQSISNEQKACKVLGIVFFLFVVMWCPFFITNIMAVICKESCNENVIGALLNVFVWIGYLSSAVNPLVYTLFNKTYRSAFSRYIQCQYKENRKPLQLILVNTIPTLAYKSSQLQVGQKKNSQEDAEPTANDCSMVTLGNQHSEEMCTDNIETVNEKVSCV

Take `COCCOCCOCC(=O)Oc1cccc2[nH]cc(CCN(C)C)c12` [C(III)]: the “5-HT1A receptor modulation (reduction of cAMP levels)” value on 5-HT1A receptor is given as “significant receptor modulation”. In addition, the “Incidences of Head Twitch Response (HTR)” value in series [1] is reported as “Elevated incidences of HTR”.

Turning to `CN(C)CCc1c[nH]c2cccc(OC(=O)CC3CC3)c12` [C(IV)], the “5-HT1A receptor modulation (reduction of cAMP levels)” value on 5-HT1A receptor was “significant receptor modulation”. Further, the “Psilocin, measured, in C(IV) residual dosing solution” value in series [2] (C(IV) nominal 0.1 mg/mL, not accurate, peak below LLOQ, for reference only) is given as 0.00174^d mg/mL; in series [2] (C(IV) nominal 0.2 mg/mL), 0.00324 mg/mL; in series [2] (C(IV) nominal 0.3 mg/mL), 0.00474 mg/mL; in series [2] (C(IV) nominal 1 mg/mL), 0.0234 mg/mL. Besides, in series [2] (PK dosing solutions), the “Stability in dosing solutions” value is on record as “compound instability in dosing solutions”. The “C(IV), measured, residual dosing solution concentration” value in series [2] (nominal 0.1 mg/mL) is recorded as 0.0275 mg/mL; in series [2] (nominal 0.2 mg/mL), 0.0586 mg/mL; in series [2] (nominal 0.3 mg/mL), 0.0789 mg/mL; in series [2] (nominal 1 mg/mL) it was 0.252 mg/mL. In addition, in series [1], the “Incidences of Head Twitch Response (HTR)” value is “Elevated incidences of HTR”. Also, the pIC50 against GABAA (blocker (BL)) was < 4.00. Also, the pEC50 at GABAA (opener (OP)) was < 4.00. The “Plasma concentration of psilocin” value in series [3] (0.275 mg/kg oral C(IV), 24 h, animals M64-M66) is “No Peak”; in series [3] (0.789 mg/kg oral C(IV), 24 h, animals M67-M69) it was “No Peak”. Further, the “Detectability of administered compound in plasma, any animals at any dose” value in series [3] (mouse) is given as “not detectable in any animals at any dose”.

For `COc1ccc(C(=O)Oc2cccc3[nH]cc(CCN(C)C)c23)cc1` [C(V)], the “5-HT1A receptor modulation (reduction of cAMP levels)” value at 5-HT1A receptor is given as “mild receptor modulation at higher ligand concentrations”. The “Incidences of Head Twitch Response (HTR)” value in series [1] is given as “Elevated incidences of HTR”. Besides, the pIC50 against GABAA (blocker (BL) mode) is < 4.00. Further, the pEC50 on GABAA (opener (OP) mode) was < 4.00. In series [3] (mouse, 1 mg/kg i.v.), the “Detectability of administered compound in plasma, i.v. administered animals” value is “only detectable in i.v. administered animals”. The “Detectability of administered compound in plasma, orally administered animals” value in series [3] (mouse, oral, any dose (1, 3, 10 mg/kg)) is “not detectable in orally administered animals at any dose”. Also, the “Plasma concentration of administered (parent) compound” value in series [3] (mouse, 1 mg/kg i.v., 5 min, individual animals, 1 mg/kg) is 6.53 ng/mL and 53.8 ng/mL and 13.5 ng/mL; in series [3] (mouse, 1 mg/kg i.v., 5 min, mean ± SD) it was 24.6 ± 25.5 ng/mL; in series [3] (mouse, 1 mg/kg i.v., 0.25 h, individual animals, 1 mg/kg) it was “BLQ (BLQ denotes below the lower limit of quantitation (0.5 ng/mL).)”; in series [3] (mouse, 1 mg/kg i.v., 0.25 h, mean ± SD), 0.834 (n = 1) ng/mL; in series [3] (mouse, 1 mg/kg i.v., 0.5 h, individual animals, 1 mg/kg), “BLQ (BLQ denotes below the lower limit of quantitation (0.5 ng/mL).); also recorded: No Peak”; in series [3] (mouse, 1 mg/kg i.v., 1 h, individual animals) it was “No Peak”. In addition, the “Plasma concentration of administered (parent) compound” value in series [3] (mouse, 1 mg/kg i.v., 2 h, individual animals) is on record as “No Peak”; in series [3] (mouse, 1 mg/kg i.v., 4 h, individual animals), “No Peak”; in series [3] (mouse, 1 mg/kg i.v., 6 h, individual animals), “No Peak”; in series [3] (mouse, 1 mg/kg i.v., 8 h, individual animals) it was “No Peak”. The “Cmax of administered (parent) compound” value in series [3] (mouse, 1 mg/kg i.v., individual animals, 1 mg/kg) is 6.53 ng/mL and 53.8 ng/mL and 13.5 ng/mL; in series [3] (mouse, 1 mg/kg i.v., mean ± SD), 24.6 ± 25.5 ng/mL. Besides, the “Plasma concentration of psilocin” value is listed as “BLQ (BLQ denotes below the lower limit of quantitation (0.2 ng/ml).)” in series [3] (setting [4]); “BLQ (BLQ denotes below the lower limit of quantitation (0.2 ng/ml).)” in series [3] (setting [5]); “No Peak; also recorded: BLQ (BLQ denotes below the lower limit of quantitation (0.2 ng/ml).)” in series [3] (setting [6]); “No Peak; also recorded: BLQ (BLQ denotes below the lower limit of quantitation (0.2 ng/ml).)” in series [3] (setting [7]); “BLQ (BLQ denotes below the lower limit of quantitation (0.2 ng/ml).); also recorded: No Peak” in series [3] (setting [8]). Also, in series [3] (plasma, LC-MS bioanalysis of the mouse PK study), the Stability in plasma result is on record as “unstable in plasma; also recorded: ^aA freshly spiked calibration curve was used for quantification C(V) is not stable in plasma; concentrations are not considered accurate; also recorded: ^aDue to C(V) instability in plasma, the PK parameter estimates are not considered accurate”.

On to `CN(C)CCc1c[nH]c2cccc(OC(=O)c3c(F)c(F)c(F)c(F)c3F)c12` [C(VI)], for which, on 5-HT1A receptor, the “5-HT1A receptor modulation (reduction of cAMP levels)” value is recorded as “no receptor modulation at higher ligand concentrations”. Moreover, the “Incidences of Head Twitch Response (HTR)” value in series [1] is “Elevated incidences of HTR”. The pIC50 against GABAA (blocker (BL)) was < 4.00. The pEC50 at GABAA (opener (OP)) is < 4.00. Besides, in series [3] (mouse), the “Detectability of administered compound in plasma, any animals at any dose” value is given as “not detectable in any animals at any dose”. The “Plasma concentration of psilocin” value in series [3] (setting [4]) is “BLQ (BLQ denotes below the lower limit of quantitation (0.2 ng/ml).)”; in series [3] (setting [5]), “BLQ (BLQ denotes below the lower limit of quantitation (0.2 ng/ml).)”; in series [3] (setting [6]), “BLQ (BLQ denotes below the lower limit of quantitation (0.2 ng/ml).); also recorded: No Peak”; in series [3] (setting [7]), “BLQ (BLQ denotes below the lower limit of quantitation (0.2 ng/ml).); also recorded: No Peak”; in series [3] (setting [8]) it was “BLQ (BLQ denotes below the lower limit of quantitation (0.2 ng/ml).)”.

Regarding `CN(C)CCc1c[nH]c2cccc(OC(=O)c3cccc(C(=O)Oc4cccc5[nH]cc(CCN(C)C)c45)c3)c12` [C(VII)], the “5-HT1A receptor modulation (reduction of cAMP levels)” value on 5-HT1A receptor is “no significant receptor modulation”. Also, the “Incidences of Head Twitch Response (HTR)” value in series [1] is given as “Elevated incidences of HTR”.

For `COC(=O)c1cccc(C(=O)Oc2cccc3[nH]cc(CCN(C)C)c23)c1` [C(XLIII)], the “5-HT1A receptor modulation (reduction of cAMP levels)” value on 5-HT1A receptor is given as “receptor modulation at higher ligand concentrations”.

For `CN(C)CCc1c[nH]c2cccc(O)c12` [psilocin, reference compound], on 5-HT1A receptor, the “5-HT1A receptor modulation (reduction of cAMP levels)” value is “reduction in cAMP levels”. For the same compound, the “Competition binding vs [3H]ketanserin at 5-HT2A (control outcome)” value at 5-HT2A receptor was “binding”.

On to `NCCc1c[nH]c2ccc(O)cc12` [serotonin, reference compound], for which the “5-HT1A receptor modulation (reduction of cAMP levels)” value on 5-HT1A receptor is “reduction in cAMP levels”.

As for `N[C@@H](Cc1c[nH]c2ccccc12)C(=O)O` [tryptophan, reference compound], the “5-HT1A receptor modulation (reduction of cAMP levels)” value on 5-HT1A receptor was “no reduction in cellular cAMP levels”. The “Competition binding vs [3H]ketanserin at 5-HT2A (control outcome)” value on 5-HT2A receptor is reported as “no binding”.
